# Test results: patent US9770026B2, “Substituted pyrimidine compound and uses thereof” (Shenyang Sinochem Agrochemicals R&D Co., Ltd., priority 2012, dated 2017)
# Experiments:
# [1] = test system: carmine spider mite; experiment: bioactivity test against carmine spider mite, airbrush spray; type: in vivo; details: for control against carmine spider mite: mortality after 72 hrs
# In short: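 Broadbean seedlings infested with adult mites were sprayed with compound (acetone/methanol stock diluted in 0.1% Tween 80 water) by airbrush at 0.7 kg/cm^2, 0.5 ml. Three replicates were run. Mortality was scored after 72 hrs.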
# [2] = test system: rice blast; experiment: microbe, parasite or virus in culture; type: cell-based; details: Pyricularia oryzae
# [3] = test system: corn rust; experiment: protectant activity in vivo against corn rust; details: for pest or weed control at 0.4 µg/mL: read-out: control effect against corn rust (%), 0.4 mg/L; for pest or weed control at 0.4 µg/mL / pest or weed control at 1.6 µg/mL / pest or weed control at 6.25 µg/mL / pest or weed control at 25 µg/mL / pest or weed control at 100 µg/mL / pest or weed control at 400 µg/mL: protectant activity; for pest or weed control at 1.6 µg/mL: read-out: control effect against corn rust (%), 1.6 mg/L; for pest or weed control at 6.25 µg/mL: read-out: control effect against corn rust (%), 6.25 mg/L; for pest or weed control at 25 µg/mL: read-out: control effect against corn rust (%), 25 mg/L; for pest or weed control at 100 µg/mL: read-out: control effect against corn rust (%), 100 mg/L; for pest or weed control at 400 µg/mL: read-out: control effect against corn rust (%), 400 mg/L; for pest or weed control at 25 ppm: read-out: protectant activity against corn rust in vivo, 25 ppm
# [4] = test system: cucumber downy mildew; experiment: protectant activity in vivo against cucumber downy mildew; details: for pest or weed control at 50 ppm: read-out: protectant activity against cucumber downy mildew in vivo, 50 ppm
# [5] = test system: wheat powdery mildew; experiment: protectant activity in vivo against wheat powdery mildew; details: for pest or weed control at 1.6 µg/mL: read-out: control effect against wheat powdery mildew (%), 1.6 mg/L
# [6] = test system: Green peach aphids (Myzus Persicae Sulzer); experiment: bioactivity test against green peach aphid, airbrush foliar spray; type: in vivo; details: for Insecticidal activity against peach aphid (%): contrastive test
# In short: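 Death rate was scored at 48 hrs, held at 25±1 C and 60±5% RH, following airbrush foliar spray (0.5 mL, 10 psi) onto cabbage leaf discs bearing about 15-30 aphids. Test solutions: compound dissolved in 1:1 acetone:methanol, brought to concentration with 0.1% tween 80 water.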
# [7] = test system: Diamond back moth; experiment: insecticidal activity against diamond back moth, airbrush spray; type: in vivo; details: mortality after 72 hrs; for control (test results against diamond back moth): 600 ppm
# In short: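 Airbrush leaf-disc spray test: both faces of 2 cm cabbage discs received 0.5 ml of test solution at 0.7 kg/cm^2. Solutions were made in acetone:methanol (1:1) and brought to concentration with 0.1% Tween 80 in water. Ten second-instar larvae per disc, triplicates, were held at 25° C and 60˜70% R.H., with mortality recorded at 72 hrs.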
# [8] = Triticum aestivum, 168 h, protectant activity
# [9] = 10 ppm, death rate after 48 hrs
compound,measurement,setting,value
Cc1ncnc(NCCc2ccc(Oc3ccc(C(F)(F)F)cn3)cc2)c1Cl [Compound I-22],Insecticidal activity against carmine spider mite (% ),[1]; 5 mg/L,59%
same,Insecticidal activity against carmine spider mite (% ),"[1]; 10 mg/L, contrastive test",74%
same,Insecticidal activity against carmine spider mite (% ),"[1]; 100 mg/L, contrastive test",100%
same,Insecticidal activity against carmine spider mite (% ),"[1]; 600 mg/L, contrastive test",100%
same,control against carmine spider mite,[1]; 100 ppm,100%
same,control against carmine spider mite,[1]; 600 ppm,100%
same,inhibition at 8.3 ppm,"[2]; read-out: inhibition rate against rice blast, 8.3 ppm, in vitro",80 to 99%
same,protectant activity against corn rust in vivo,[3]; 6.25 ppm,100%
same,protectant activity against corn rust in vivo,[3]; 100 ppm,100%
same,pest or weed control at 0.4 µg/mL,"[3]; Zea mays, 168 h",20%
same,pest or weed control at 1.6 µg/mL,"[3]; Zea mays, 168 h",50%
same,pest or weed control at 6.25 µg/mL,"[3]; Zea mays, 168 h",100%
same,pest or weed control at 25 µg/mL,"[3]; Zea mays, 168 h",100%
same,pest or weed control at 100 µg/mL,"[3]; Zea mays, 168 h",100%
same,pest or weed control at 400 µg/mL,"[3]; Zea mays, 168 h",100%
same,pest or weed control at 25 ppm,"[3]; Zea mays, 168 h",100%
same,pest or weed control at 400 ppm,"[3]; Zea mays, 168 h, read-out: protectant activity against corn rust in vivo, 400 ppm",100%
same,protectant activity against cucumber downy mildew in vivo,[4]; 100 ppm,100%
same,pest or weed control at 3.125 µg/mL,"[4]; Cucumis sativus, 168 h, read-out: control effect against cucumber downy mildew (%), 3.125 mg/L, protectant activity",85%
same,pest or weed control at 6.25 µg/mL,"[4]; Cucumis sativus, 168 h, read-out: control effect against cucumber downy mildew (%), 6.25 mg/L, protectant activity",100%
same,pest or weed control at 12.5 µg/mL,"[4]; Cucumis sativus, 168 h, read-out: control effect against cucumber downy mildew (%), 12.5 mg/L, protectant activity",100%
same,pest or weed control at 25 µg/mL,"[4]; Cucumis sativus, 168 h, read-out: control effect against cucumber downy mildew (%), 25 mg/L, protectant activity",100%
same,pest or weed control at 50 µg/mL,"[4]; Cucumis sativus, 168 h, read-out: control effect against cucumber downy mildew (%), 50 mg/L, protectant activity",100%
same,pest or weed control at 100 µg/mL,"[4]; Cucumis sativus, 168 h, read-out: control effect against cucumber downy mildew (%), 100 mg/L, protectant activity",100%
same,pest or weed control at 400 µg/mL,"[4]; Cucumis sativus, 168 h, read-out: control effect against cucumber downy mildew (%), 400 mg/L, protectant activity",100%
same,pest or weed control at 6.25 ppm,"[4]; Cucumis sativus, 168 h, read-out: protectant activity against cucumber downy mildew in vivo, 6.25 ppm",100%
same,pest or weed control at 12.5 ppm,"[4]; Cucumis sativus, 168 h, read-out: protectant activity against cucumber downy mildew in vivo, 12.5 ppm",100%
same,pest or weed control at 25 ppm,"[4]; Cucumis sativus, 168 h, read-out: protectant activity against cucumber downy mildew in vivo, 25 ppm",100%
same,pest or weed control at 50 ppm,"[4]; Cucumis sativus, 168 h",100%
same,pest or weed control at 400 ppm,"[4]; Cucumis sativus, 168 h, read-out: protectant activity against cucumber downy mildew in vivo, 400 ppm",100%
same,protectant activity against wheat powdery mildew in vivo,[5]; 6.25 ppm,100%
same,protectant activity against wheat powdery mildew in vivo,[5]; 100 ppm,100%
same,pest or weed control at 1.6 µg/mL,[5]; [8],15%
same,pest or weed control at 6.25 µg/mL,"[5]; Triticum aestivum, 168 h, read-out: control effect against wheat powdery mildew (%), 6.25 mg/L, protectant activity",100%
same,pest or weed control at 25 µg/mL,"[5]; Triticum aestivum, 168 h, read-out: control effect against wheat powdery mildew (%), 25 mg/L, protectant activity",100%
same,pest or weed control at 100 µg/mL,"[5]; Triticum aestivum, 168 h, read-out: control effect against wheat powdery mildew (%), 100 mg/L, protectant activity",100%
same,pest or weed control at 400 µg/mL,"[5]; Triticum aestivum, 168 h, read-out: control effect against wheat powdery mildew (%), 400 mg/L, protectant activity",100%
same,pest or weed control at 25 ppm,"[5]; Triticum aestivum, 168 h, read-out: protectant activity against wheat powdery mildew in vivo, 25 ppm",100%
same,pest or weed control at 400 ppm,"[5]; Triticum aestivum, 168 h, read-out: protectant activity against wheat powdery mildew in vivo, 400 ppm",100%
same,Insecticidal activity against peach aphid (%),[6]; 1.25 mg/L,100%
same,Insecticidal activity against peach aphid (%),[6]; 2.5 mg/L,100%
same,Insecticidal activity against peach aphid (%),[6]; 5 mg/L,100%
same,Insecticidal activity against peach aphid (%),[6]; 10 mg/L,100%
same,Insecticidal activity against peach aphid (%),[6]; 100 mg/L,100%
same,Insecticidal activity against peach aphid (%),[6]; 600 mg/L,100%
same,control (test results against green peach aphid),[6]; [9],100%
same,pest or weed control at 100 ppm,"[6]; Myzus persicae, foliar, 48 h, 100 ppm, death rate after 48 hrs",100%
same,pest or weed control at 600 ppm,"[6]; Myzus persicae, foliar, 48 h, 600 ppm, death rate after 48 hrs",100%
same,control (test results against diamond back moth),[7],100%
CCc1ncnc(NCCc2ccc(Oc3ccc(C(F)(F)F)cn3)cc2)c1Cl [Compound I-254],Insecticidal activity against carmine spider mite (% ),[1]; 2.5 mg/L,79%
same,Insecticidal activity against carmine spider mite (% ),[1]; 5 mg/L,93%
same,Insecticidal activity against carmine spider mite (% ),"[1]; 10 mg/L, contrastive test",97%
same,Insecticidal activity against carmine spider mite (% ),"[1]; 100 mg/L, contrastive test",100%
same,Insecticidal activity against carmine spider mite (% ),"[1]; 600 mg/L, contrastive test",100%
same,control against carmine spider mite,[1]; 10 ppm,100%
same,control against carmine spider mite,[1]; 100 ppm,100%
same,control against carmine spider mite,[1]; 600 ppm,100%
same,inhibition at 25 ppm,"[2]; read-out: inhibition rate against rice blast, 25 ppm, in vitro",80 to 99%
same,protectant activity against corn rust in vivo,[3]; 100 ppm,100%
same,protectant activity against corn rust in vivo,[3]; 400 ppm,100%
same,pest or weed control at 0.4 µg/mL,"[3]; Zea mays, 168 h",40%
same,pest or weed control at 1.6 µg/mL,"[3]; Zea mays, 168 h",95%
same,pest or weed control at 6.25 µg/mL,"[3]; Zea mays, 168 h",100%
same,pest or weed control at 25 µg/mL,"[3]; Zea mays, 168 h",100%
same,pest or weed control at 100 µg/mL,"[3]; Zea mays, 168 h",100%
same,pest or weed control at 400 µg/mL,"[3]; Zea mays, 168 h",100%
same,pest or weed control at 6.25 ppm,"[3]; Zea mays, 168 h, read-out: protectant activity against corn rust in vivo, 6.25 ppm",100%
same,pest or weed control at 25 ppm,"[3]; Zea mays, 168 h",100%
same,protectant activity against cucumber downy mildew in vivo,[4]; 100 ppm,100%
same,protectant activity against cucumber downy mildew in vivo,[4]; 400 ppm,100%
same,pest or weed control at 50 ppm,"[4]; Cucumis sativus, 168 h",100%
same,control effect against wheat powdery mildew (%),"[5]; 6.25 mg/L, protectant activity",100%
same,control effect against wheat powdery mildew (%),"[5]; 25 mg/L, protectant activity",100%
same,control effect against wheat powdery mildew (%),"[5]; 100 mg/L, protectant activity",100%
same,control effect against wheat powdery mildew (%),"[5]; 400 mg/L, protectant activity",100%
same,protectant activity against wheat powdery mildew in vivo,[5]; 100 ppm,100%
same,protectant activity against wheat powdery mildew in vivo,[5]; 400 ppm,100%
same,pest or weed control at 1.6 µg/mL,[5]; [8],20%
same,Insecticidal activity against peach aphid (%),[6]; 1.25 mg/L,100%
same,Insecticidal activity against peach aphid (%),[6]; 2.5 mg/L,100%
same,Insecticidal activity against peach aphid (%),[6]; 5 mg/L,100%
same,Insecticidal activity against peach aphid (%),[6]; 10 mg/L,100%
same,Insecticidal activity against peach aphid (%),[6]; 100 mg/L,100%
same,Insecticidal activity against peach aphid (%),[6]; 600 mg/L,100%
same,control (test results against green peach aphid),"[6]; 5 ppm, death rate after 48 hrs",100%
same,control (test results against green peach aphid),[6]; [9],100%
same,control (test results against green peach aphid),"[6]; 100 ppm, death rate after 48 hrs",100%
same,control (test results against green peach aphid),"[6]; 600 ppm, death rate after 48 hrs",100%
same,pest or weed control at 2.5 ppm,"[6]; Myzus persicae, foliar, 48 h, 2.5 ppm, death rate after 48 hrs",100%
same,control (test results against diamond back moth),[7],100%
same,pest or weed control at 100 ppm,"[7]; 72 h, 100 ppm, read-out: control (test results against diamond back moth)",100%
